“And” between values parts separate entries of the source, which are not always exact repeats. Equal entries are not always repeated.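 Results reflect a 48-hour exposure of cells in 96-well plates to compound at five concentrations. GI50 is the concentration that inhibits growth by half. At the TGI there is no net growth.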

Test systems include ACHN renal; LOX IMVI melanoma; RXF 393 renal; 786-0 renal; SK-MEL-2 melanoma; SW-620 colon; SK-MEL-5 melanoma; HCC-2998 colon; SR leukemia; UACC-62 melanoma.
Common to all, as to experiment: NCI-60 cell line screen, 48 h

Turning to `COc1cccc(N2C(=O)C3c4[nH]c5ccccc5c4C4CCCC4C3C2=O)c1` (configuration not stated), the TGI with ACHN renal is > 10 µM; in the assay with LOX IMVI melanoma, > 10 µM; in the assay on RXF 393 renal it was > 10 µM; in the assay on 786-0 renal, 4.41 µM; in the assay on SK-MEL-2 melanoma, > 10 µM; in the assay with SW-620 colon it was > 10 µM. The TGI is > 10 µM in the assay on SK-MEL-5 melanoma, > 10 µM in the assay with HCC-2998 colon, 4.09 µM with SR leukemia and > 10 µM in the assay on UACC-62 melanoma.
With `O=S(=O)(/C=C/c1ccc(F)cc1)Cc1ccc(CS(=O)(=O)/C=C/c2ccc(F)cc2)cc1`, the TGI with ACHN renal, in the assay with LOX IMVI melanoma, in the assay on RXF 393 renal, in the assay with 786-0 renal, in the assay on SK-MEL-2 melanoma and in the assay with SW-620 colon was > 100 µM in each case. The TGI in the assay with SK-MEL-5 melanoma, in the assay on HCC-2998 colon, in the assay on SR leukemia and with UACC-62 melanoma was > 100 µM each time.
Consider `O=C1c2cc3c(cc2[C@@H]2[C@H]1c1ccc([N+](=O)[O-])cc1C(=O)N2CCCBr)OCO3`, for which the GI50 in the assay on ACHN renal is < 10 nM; in the assay on LOX IMVI melanoma, < 10 nM; in the assay on RXF 393 renal, < 10 nM; in the assay on 786-0 renal, < 10 nM; with SK-MEL-2 melanoma, 2150 nM; in the assay on SW-620 colon it was < 10 nM. Besides, the GI50 in the assay with SK-MEL-5 melanoma was < 10 nM; in the assay with HCC-2998 colon, < 12.5 nM; with SR leukemia, < 10 nM; in the assay with UACC-62 melanoma it was < 10 nM. Further, the TGI with ACHN renal is < 0.01 µM; in the assay with LOX IMVI melanoma, < 0.0117 µM; with RXF 393 renal, < 0.01 µM; in the assay with 786-0 renal it was < 0.01 µM; in the assay with SK-MEL-2 melanoma, > 100 µM; in the assay with SW-620 colon it was 3.64 µM. Further, the TGI in the assay with SK-MEL-5 melanoma was 0.0101 µM; with HCC-2998 colon, 0.117 µM; with SR leukemia, < 0.01 µM; with UACC-62 melanoma, < 0.01 µM.
For `O=C1C(c2ccccc2)=C(O)c2cccc3cccc1c23`, the TGI in the assay on ACHN renal, with LOX IMVI melanoma, in the assay with RXF 393 renal, in the assay with 786-0 renal, in the assay on SK-MEL-2 melanoma and in the assay with SW-620 colon was > 100 µM each time. Further, the TGI with SK-MEL-5 melanoma, in the assay on HCC-2998 colon, with SR leukemia and with UACC-62 melanoma was > 100 µM each time.
As to `COc1cc2nc(N3CCCC3)nc(NCc3ccccc3)c2cc1OC`, the GI50 with ACHN renal is 1890 nM; with LOX IMVI melanoma, 1710 nM; with RXF 393 renal, 1410 nM; in the assay with 786-0 renal it was 1650 nM; in the assay with SK-MEL-2 melanoma, 2260 nM; in the assay on SW-620 colon, 2280 nM. The GI50 was 1650 nM with SK-MEL-5 melanoma, 2130 nM in the assay with HCC-2998 colon, 1530 nM in the assay with SR leukemia and 2280 nM with UACC-62 melanoma. Moreover, the TGI in the assay on ACHN renal came out at 3.89 µM; with LOX IMVI melanoma, 3.36 µM; in the assay on RXF 393 renal, 3.06 µM; with 786-0 renal, 3.07 µM; in the assay on SK-MEL-2 melanoma it was 5.13 µM; with SW-620 colon it was 6.24 µM. In addition, the TGI with SK-MEL-5 melanoma stood at 3.12 µM; in the assay with HCC-2998 colon, 4.25 µM; in the assay with SR leukemia it was 5.3 µM; in the assay with UACC-62 melanoma, 5.39 µM.
On to `C=C/C=C/NC(=O)OCc1ccccc1`, for which the TGI with ACHN renal, in the assay on LOX IMVI melanoma, in the assay with RXF 393 renal, with 786-0 renal, in the assay with SK-MEL-2 melanoma and in the assay with SW-620 colon was > 100 µM each time. Also, the TGI with SK-MEL-5 melanoma, with SR leukemia and with UACC-62 melanoma was > 100 µM each time.
As for `C=C1C(O)C2C(=C(CC)C13CC3)C(=O)C(C)(C)C2OC` (configuration not stated), the GI50 was 67800 nM in the assay with ACHN renal; 43100 nM in the assay with LOX IMVI melanoma; > 100000 nM with RXF 393 renal; > 100000 nM in the assay with 786-0 renal; > 100000 nM in the assay with SK-MEL-2 melanoma; 59900 nM in the assay on SW-620 colon. Moreover, the values for the GI50 in the assay on SK-MEL-5 melanoma, with SR leukemia and in the assay with UACC-62 melanoma were 42600 nM, 23500 nM and 84900 nM, respectively. The TGI in the assay on ACHN renal, with LOX IMVI melanoma, in the assay with RXF 393 renal, with 786-0 renal, with SK-MEL-2 melanoma and with SW-620 colon was > 100 µM each time. Also, the results for the TGI with SK-MEL-5 melanoma, with SR leukemia and in the assay with UACC-62 melanoma were > 100 µM, 68 µM and > 100 µM, respectively.
Take `CSC1=C(N)C(=O)c2[nH]cc(CO)c2C1=N`: the GI50 with LOX IMVI melanoma is 134 nM; with RXF 393 renal, 281 nM; in the assay with 786-0 renal it was 1440 nM; in the assay with SK-MEL-2 melanoma it was 211 nM; in the assay with SW-620 colon, 198 nM; in the assay with SK-MEL-5 melanoma it was 45.1 nM. The GI50 in the assay on HCC-2998 colon is 173 nM; in the assay with SR leukemia it was 221 nM; in the assay on UACC-62 melanoma, 159 nM. For the same compound, the TGI in the assay with LOX IMVI melanoma was 0.283 µM; in the assay on RXF 393 renal, 0.85 µM; in the assay with 786-0 renal, 3.24 µM; with SK-MEL-2 melanoma, 0.503 µM; in the assay with SW-620 colon, 0.422 µM; in the assay with SK-MEL-5 melanoma, 0.164 µM. Further, the TGI with HCC-2998 colon was found to be 0.338 µM; in the assay with SR leukemia, 0.659 µM; with UACC-62 melanoma, 0.314 µM.
Consider `CCOC(=O)CC[C@H](NC(=O)c1nc[nH]c1[N+](=O)[O-])C(=O)OCC`, for which the TGI with ACHN renal, with LOX IMVI melanoma, with RXF 393 renal, with 786-0 renal, with SK-MEL-2 melanoma and in the assay on HCC-2998 colon was > 100 µM each time. In addition, the TGI in the assay with SR leukemia and with UACC-62 melanoma was > 100 µM throughout.
`Cc1cccc(/C=N/NC(=S)N2CCCC2)n1`: the GI50 with ACHN renal was 1440 nM; in the assay with RXF 393 renal, 2090 nM; with 786-0 renal it was 2450 nM; with SW-620 colon it was 352 nM; in the assay on HCC-2998 colon, 102 nM; in the assay on SR leukemia it was 150 nM. In the assay with UACC-62 melanoma, the GI50 is 587 nM. Also, the TGI with LOX IMVI melanoma is > 41.4 µM; with 786-0 renal it was 2.85 µM; in the assay with SW-620 colon, > 100 µM; in the assay with SK-MEL-5 melanoma it was 0.823 µM; in the assay on HCC-2998 colon, 0.92 µM; in the assay with SR leukemia, 0.876 µM. Further, the TGI in the assay on UACC-62 melanoma is 2.8 µM and 1 µM.
On to `Cc1cn(C2CC3C(COCN3O)O2)c(=O)[nH]c1=O` (configuration not stated), for which the TGI in the assay on ACHN renal, with LOX IMVI melanoma, in the assay with RXF 393 renal, in the assay on 786-0 renal, in the assay on SW-620 colon and in the assay on SK-MEL-5 melanoma was > 100 µM in each case. Also, the TGI with HCC-2998 colon, in the assay with SR leukemia and in the assay with UACC-62 melanoma was > 100 µM throughout.
For the compound `Nc1ncnc2c1N=C(c1ccc3c(c1)OCO3)CC(c1ccc([N+](=O)[O-])cc1)N2` (configuration not stated), the GI50 with ACHN renal was 29100 nM; in the assay on LOX IMVI melanoma, 22900 nM; with RXF 393 renal, 7190 nM; with 786-0 renal it was 79100 nM; in the assay with SW-620 colon, 53200 nM; with SK-MEL-5 melanoma, 82900 nM. The values for the GI50 in the assay on HCC-2998 colon, with SR leukemia and in the assay with UACC-62 melanoma were 66100 nM, 2370 nM and 76900 nM, respectively. Further, the TGI in the assay on ACHN renal is > 100 µM; with LOX IMVI melanoma, > 100 µM; with RXF 393 renal, 63.1 µM; with 786-0 renal, > 100 µM; with SW-620 colon, > 100 µM; with SK-MEL-5 melanoma, > 100 µM. Further, the results for the TGI in the assay with HCC-2998 colon, in the assay with SR leukemia and with UACC-62 melanoma were > 100 µM, 67.9 µM and > 100 µM, respectively.
As for `O=C(Nc1ccc(Br)cc1F)c1cc(I)ccc1O`, the GI50 was 2780 nM in the assay on LOX IMVI melanoma; 2550 nM with RXF 393 renal; 3320 nM in the assay on 786-0 renal; 2000 nM in the assay on SK-MEL-2 melanoma; 3070 nM in the assay on SW-620 colon; 1480 nM in the assay on SK-MEL-5 melanoma. Also, the GI50 in the assay with HCC-2998 colon was 3140 nM; in the assay with SR leukemia, 2710 nM; with UACC-62 melanoma it was 1370 nM. Moreover, the TGI in the assay on LOX IMVI melanoma is 14.3 µM; in the assay on RXF 393 renal, 7.54 µM; with 786-0 renal it was 11.4 µM; in the assay on SK-MEL-2 melanoma it was 5.71 µM; with SW-620 colon, 17.7 µM; in the assay on SK-MEL-5 melanoma, 2.98 µM. For the same compound, the TGI in the assay with HCC-2998 colon is 12.7 µM; in the assay on SR leukemia, > 100 µM; in the assay with UACC-62 melanoma it was 4.43 µM.
For the compound `CC[C@@]1(O)C(=O)OCc2c1cc1n(c2=O)Cc2cc3cc4c(cc3nc2-1)OCO4`, the GI50 in the assay with LOX IMVI melanoma is < 1 nM; with RXF 393 renal, < 26.7 nM; in the assay on SK-MEL-2 melanoma, 204 nM. The TGI is 0.109 µM and 0.0506 µM in the assay with LOX IMVI melanoma; 0.0831 µM with RXF 393 renal; 0.00274 µM with 786-0 renal; 0.173 µM and 0.997 µM in the assay with SK-MEL-2 melanoma; 3.18 µM in the assay on SW-620 colon; 0.0721 µM and < 0.0281 µM with SK-MEL-5 melanoma. The TGI in the assay on HCC-2998 colon is 0.208 µM; in the assay on SR leukemia, > 100 µM; with UACC-62 melanoma it was 0.00717 µM.
For `C=C1CC2OC(=O)C(=C)C2C(O)C2C(=C)CCC12` (configuration not stated), the TGI in the assay with ACHN renal came to 21.2 µM; in the assay on RXF 393 renal it was 17.7 µM; in the assay with 786-0 renal, 26.7 µM; in the assay on SK-MEL-2 melanoma, 40.8 µM; in the assay on SW-620 colon, 13.8 µM; with SK-MEL-5 melanoma, 25.3 µM. For the same compound, the TGI in the assay on HCC-2998 colon was 22.2 µM; in the assay on SR leukemia, 14 µM; in the assay on UACC-62 melanoma it was 12.8 µM.
As for `NC(=O)N/N=C1/CCC(O)CC1CC(=O)O` (configuration not stated), the TGI in the assay with ACHN renal, with LOX IMVI melanoma, in the assay with RXF 393 renal, in the assay on 786-0 renal, in the assay on SK-MEL-2 melanoma and in the assay on SW-620 colon was > 100 µM each time. Also, the TGI with SK-MEL-5 melanoma, in the assay on SR leukemia and with UACC-62 melanoma was > 100 µM each time.

The values are drawn from PubChem BioAssay (NCI).
